Results on 15 compounds are retold here after patent EP0017970A1, “Novel beta-lactam derivatives and process for production thereof” (SANRAKU-OCEAN CO., LTD., priority 1979, dated 1980).

Data set [1] is described as follows: Test for concentration in blood (plasma of mouse, bioassay). The format is in vivo. The note with it: sc, subcutaneous, 2 mg/mouse, average on five mice; for Cmax: bioassay with Comamonas terrigena B-996, read-out: Maximum concentration; for half-life: read-out: Half period (period that elapsed until the concentration was reduced to half). The procedure:
Typical species of the compounds of formula (VI-b) were each administered subcutaneously to five mice in a dose of 2 mg. After 5 minutes from the administration, a small amount of blood was periodically drawn from the eyes of the mice into a heparinized capillary tube, and centrifuged. The concentration of the compound in the supernatant liquid (plasma) was determined by a bioassay method using Comamonas terri^gena B-996.

For data set [2], the system named is Staphylococcus aureus Smith strain. Briefly: Infection treating test (CD50). The note with it: in Mus musculus, sc, 2 h, mice infected intraperitoneally with 5 x 10^5 cells per mouse, subcutaneous injection two hours after the infection. The format is in vivo. The method, then: The in vivo activities of the compounds of formula (VI-b) were determined by using mice (five per group, male DDY mice, Shizuoka) which had been intraperitoneally infected with Staphylococcus aureus Smith strain in an amount of 5 x 10^5 cells per mouse. Two hours after the infection, an injection containing a sodium salt of each of the compounds of formula (VI-b) was subcutaneously administered to the mice.

For orientation: ED50 means the midpoint of the dose-response relation. High values mean a need for a large dose, low ones an effect at a small dose. As to `CC(O)[C@H]1C(=O)N2C(C(=O)O)=C(Sc3ccncc3)C[C@H]12` (relative stereo) [Table II r7 R1=-OH R2=[drawing] M=H*], in data set [1], the Cmax was 103000 ng/mL and the half-life turned out to be 18 min. Besides, the ED50 in data set [2] came out at 0.125 mg/kg.

For `CC(O)[C@@H]1C(=O)N2C(C(=O)O)=C(Sc3ccncc3)C[C@H]12` (relative stereo) [Table II r8 R1=-OH R2=[drawing] M=H**], in data set [1], the Cmax turned out to be 29000 ng/mL and the half-life amounted to 13.5 min. The same compound had an ED50 in data set [2] of 0.125 mg/kg.

In the case of `CC(O)[C@H]1C(=O)N2C(C(=O)O)=C(Sc3ncccn3)C[C@H]12` (relative stereo) [Table II r12 R1=-OH R2=[drawing] M=H*], in data set [1], the Cmax amounted to 54000 ng/mL and the half-life is 25 min. In data set [2], this compound displayed an ED50 of 0.25 mg/kg.

Consider `CC(O)[C@@H]1C(=O)N2C(C(=O)O)=C(Sc3ncccn3)C[C@H]12` (relative stereo) [Table II r13 R1=-OH R2=[drawing] M=H**], for which, in data set [1], the Cmax was 23300 ng/mL and the half-life was found to be 19 min. In data set [2], this compound showed an ED50 of 0.25 mg/kg.

Take `CC(=O)NCCSC1=C(C(=O)O)N2C(=O)[C@H](C(C)O)[C@H]2C1` (stereo partly drawn) [PS-3A.Na, 3-(2-acetamidoethylthio)-6-(1-hydroxyethyl)-7-oxo-1-azabicyclo[3.2.0]hept-2-ene-2-carboxylic acid, reference compound]: the 50% effective dose (ED50) in data set [2] was found to be 4 mg/kg.

For `CC(=O)NCCSC1=C(C(=O)O)N2C(=O)C(C(C)O)C2C1` (stereo not drawn) [PS-3B.Na, 3-(2-acetamidoethylthio)-6-(1-hydroxyethyl)-7-oxo-1-azabicyclo[3.2.0]hept-2-ene-2-carboxylic acid, reference compound], in data set [1], the Cmax is 26300 ng/mL and the half-life came out at 5 min.

Consider `CCC1C(=O)N2C(C(=O)O)=C(SCCNC(C)=O)CC12` (stereo not drawn) [PS-5.Na, 3-(2-acetamidoethylthio)-6-ethyl-7-oxo-1-azabicyclo[3.2.0]hept-2-ene-2-carboxylic acid, reference compound], for which, in data set [1], the Cmax worked out at 40000 ng/mL and the half-life was 7 min. The compound also yielded an ED50 in data set [2] of 1 mg/kg.

For the compound `CC(=O)NCCSC1=C(C(=O)O)N2C(=O)C(C(C)C)C2C1` (stereo not drawn) [PS-6.Na, 3-(2-acetamidoethylthio)-6-isopropyl-7-oxo-1-azabicyclo[3.2.0]hept-2-ene-2-carboxylic acid, reference compound], in data set [1], the Cmax was determined as 23800 ng/mL and the half-life was 5 min. Moreover, in data set [2], the ED50 was 8 mg/kg.

Regarding `CC(C)C1C(=O)N2C(C(=O)O)=C(SCCN(C)C)CC12` (stereo not drawn) [R1=-CH3 R2=-CH2CH2N(CH3)2 M=H], in data set [1], the Cmax stood at 22000 ng/mL and the half-life was 6.1 min. This compound also displayed an ED50 in data set [2] of 2 mg/kg.

For the compound `CCC1C(=O)N2C(C(=O)O)=C(SCCN(C)C)CC12` (stereo not drawn) [R1=H R2=-CH2CH2N(CH3)2 M=H], in data set [1], the Cmax turned out to be 36200 ng/mL and the half-life amounted to 6 min. The compound further gave an ED50 in data set [2] of 0.25 mg/kg.

Turning to `CCC1C(=O)N2C(C(=O)O)=C(SCCNC(=O)Cc3ccccc3)CC12` (stereo not drawn) [R1=H R2=-CH2CH2NHCOCH2-[drawing] M=Na], in data set [1], the Cmax was determined as 2800 ng/mL and the half-life worked out at 6 min.

Turning to `CCC1C(=O)N2C(C(=O)O)=C(SCCO)CC12` (stereo not drawn) [R1=H R2=-CH2CH2OH M=Na], in data set [1], the Cmax came out at 36900 ng/mL and the half-life is 6 min. Moreover, the ED50 in data set [2] amounted to 1 mg/kg.

Regarding `CCC1C(=O)N2C(C(=O)O)=C(Sc3ccncc3)CC12` (stereo not drawn) [Table II r5 R1=H R2=[drawing] M=H], in data set [1], the Cmax is 70700 ng/mL and the half-life was determined as 16 min. In data set [2], the ED50 was 0.063 mg/kg.

As to `CCC1C(=O)N2C(C(=O)O)=C(SC3CCCCC3)CC12` (stereo not drawn) [Table II r14 R1=H R2=[drawing] M=Na], in data set [1], the Cmax was found to be 8240 ng/mL and the half-life stood at 7.2 min.

As to `CCC1C(=O)N2C(C(=O)O)=C(Sc3ccccc3)CC12` (stereo not drawn) [Table II r15 R1=H R2=[drawing] M=Na], in data set [1], the Cmax was determined as 11300 ng/mL and the half-life is 25.2 min.
